Test results as given in article PMC11259170, “Small-molecule probe for IBD risk variant GPR65 I231L alters cytokine signaling networks through positive allosteric modulation” (Science Advances, 2024).
Converted amounts (≈) assume the structure as drawn. Read-outs that look alike come from different tables or passages of the source.

Key:
[1] = biological target: T1, hGPR65-SmBiT (Homo sapiens, UniProt Q8IYL9); test: Nano-BiT target engagement, LgBiT-mGs recruitment to hGPR65-SmBiT in Expi293F cells; assay type: cell-based; details: 10 μM
T1 construct: expressed in transfected cells; host or cells: Expi293F (Gibco), transient transfection
Experimental: (§1) Target engagement was measured in Expi293F (Gibco, 100044202) cells using the Nano-Glo Live Cell Assay System (Promega, N2011). Nano-BiT plasmids were cloned from GPR65-, GPR4-, and GPR68-Tango plasmids. GPR65-Tango (Addgene plasmid # 66370; http://n2t.net/addgene:66370; RRID:Addgene_66370), GPR4-Tango (Addgene plasmid # 66358; http://n2t.net/addgene:66358; RRID:Addgene_66358), and GPR68-Tango (Addgene plasmid # 66371; http://n2t.net/addgene:66371; RRID:Addgene_66371) were gifts from Bryan Roth. Expi293F cells were transfected 1 day before kinetics with 500 ng of each plasmid using ExpiFectamine 293 Transfection Kit (Gibco, A14525). After 24 hours, cells were collected, washed, and resuspended in room temperature 0.1% PBS-BSA, adjusted to pH 7.4 using 1 M NaOH. Cells were transferred to white opaque 96-well microplates (100 μl per well, PerkinElmer, 6005290), followed by addition of the Nano-Glo Live Cell Reagent (25 μl per well). Baseline luminescence was measured for 10 cycles (1 cycle = 90 s) before adding compounds. All luminescence measurements were made on BMG Labtech PHERAstar FSX. Data analysis was performed using GraphPad Prism.

[2] = biological target: T2, hGPR65 (Homo sapiens, UniProt Q8IYL9); test: cAMP detection in HeLa expression cell line, hGPR65; assay type: cell-based; details: for Emax: HeLa, relative to 100uM forskolin (100%) and DMSO (0%), read-out: hGPR Max Activity %
T2 construct: expressed in transfected cells; host or cells: HeLa (ATCC CCL-2), lentiviral transduction, pLX317
Procedure, shortened: (§2)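 Lentivirally transduced HeLa, V5-tagged GPCR, puromycin 3 μg/ml. 1500 cells/well, stimulation buffer pH 7.2, compound (10 mM DMSO stock), 30 min RT. Lyse, detection reagents 1 h dark RT. TR-FRET cAMP kit, ex 337, em 620/665.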

[3] = biological target: T3, hGPR65 I231L-SmBiT (Homo sapiens, UniProt Q8IYL9, I231L); test: Nano-BiT target engagement, LgBiT-mGs recruitment to hGPR65 I231L-SmBiT; assay type: cell-based; details: 10 μM
T3 construct: expressed in transfected cells; host or cells: Expi293F (Gibco), transient transfection
Experimental: as §1

[4] = Solubility in phosphate buffer; assay type: physicochemical; details: read-out: solubility in phosphate buffer
[5] = biological target: T4, mGPR65-SmBiT (Mus musculus, UniProt Q61038); test: Nano-BiT target engagement, LgBiT-mGs recruitment to mGPR65-SmBiT; assay type: cell-based; details: 10 μM
T4 construct: expressed in transfected cells; host or cells: Expi293F (Gibco), transient transfection
Experimental: as §1

[6] = system: WT HeLa cells expressing hGPR65; test: Cytotoxicity assay (CellTiter-Glo, 72 hours); assay type: cell-based, human
Experimental: WT HeLa cells expressing hGPR65 were seeded at 2000 cells per well in 384-well plates. Compounds were tested in 10-point dose, starting at 50 μM. Cells were incubated with compounds for 72 hours at 37°C, 5% CO2. Cytotoxicity was measured using CellTiter-Glo Luminescent Cell Viability Assay (Promega, G7572) according to the manufacturer’s protocol. Luminescence measurements were made on BMG Labtech PHERAstar FSX. Data analysis was performed using GraphPad Prism.

[7] = biological target: T5, hGPR4-SmBiT (Homo sapiens, UniProt P46093); test: Nano-BiT target engagement, LgBiT-mGs recruitment to hGPR4-SmBiT; assay type: cell-based; details: 10 μM
T5 construct: expressed in transfected cells; host or cells: Expi293F (Gibco), transient transfection
Experimental: as §1

[8] = Lipophilicity (logD); assay type: physicochemical
[9] = biological target: T6, mGPR65 (Mus musculus, UniProt Q61038); test: cAMP detection in HeLa expression cell line, mGPR65; assay type: cell-based; details: for Emax: HeLa, relative to 100uM forskolin (100%) and DMSO (0%), read-out: mGPR Max Activity %; for EC50: mGPR EC50 (uM)
T6 construct: expressed in transfected cells; host or cells: HeLa (ATCC CCL-2), lentiviral transduction, pLX317
Procedure, shortened: as §2

[10] = 2nd mGPR column pair, NA = no activity

T6 sequence (Q61038 whole entry): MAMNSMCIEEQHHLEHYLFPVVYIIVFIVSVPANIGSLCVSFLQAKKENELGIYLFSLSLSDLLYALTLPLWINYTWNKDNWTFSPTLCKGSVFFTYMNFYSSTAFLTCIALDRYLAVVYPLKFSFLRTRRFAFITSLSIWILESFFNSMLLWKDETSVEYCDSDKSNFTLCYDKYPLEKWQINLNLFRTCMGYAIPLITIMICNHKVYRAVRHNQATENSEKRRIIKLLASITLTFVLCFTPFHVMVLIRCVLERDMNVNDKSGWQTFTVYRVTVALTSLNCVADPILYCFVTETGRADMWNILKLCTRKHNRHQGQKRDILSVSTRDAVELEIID
T2 sequence (Q8IYL9 whole entry): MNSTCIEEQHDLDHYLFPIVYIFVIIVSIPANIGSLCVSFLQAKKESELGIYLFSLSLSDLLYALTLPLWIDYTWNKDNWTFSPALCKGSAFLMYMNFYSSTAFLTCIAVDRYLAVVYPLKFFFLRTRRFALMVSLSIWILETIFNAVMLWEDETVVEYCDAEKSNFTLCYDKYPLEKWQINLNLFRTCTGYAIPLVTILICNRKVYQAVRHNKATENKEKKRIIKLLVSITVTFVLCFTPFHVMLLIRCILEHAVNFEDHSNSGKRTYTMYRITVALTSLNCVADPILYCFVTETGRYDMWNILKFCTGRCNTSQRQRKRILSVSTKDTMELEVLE
T4 sequence (Q61038 whole entry): as the sequence (Q61038 whole entry) above
T1 sequence (Q8IYL9 whole entry): as the sequence (Q8IYL9 whole entry) above
T3 sequence (Q8IYL9 whole entry I231L): as the sequence (Q8IYL9 whole entry) above, with I231L counted along it
T5 sequence (P46093 whole entry): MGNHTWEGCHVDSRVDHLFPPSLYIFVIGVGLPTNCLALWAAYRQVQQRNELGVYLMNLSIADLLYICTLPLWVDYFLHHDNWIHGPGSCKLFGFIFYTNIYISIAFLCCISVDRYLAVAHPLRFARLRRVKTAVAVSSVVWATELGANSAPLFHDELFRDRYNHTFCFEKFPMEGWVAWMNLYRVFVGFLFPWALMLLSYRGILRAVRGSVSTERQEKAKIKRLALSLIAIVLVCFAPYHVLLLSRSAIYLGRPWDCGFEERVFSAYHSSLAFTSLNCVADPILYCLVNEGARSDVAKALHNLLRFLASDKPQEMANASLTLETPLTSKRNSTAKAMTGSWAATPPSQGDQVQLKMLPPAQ

Cc1ccc(NC(=O)c2cnn3c(O)cc(-c4ccc(COC(C)C)cc4)nc23)c(F)c1 [BRD5080, O=C(NC1=C(F)C=C(C)C=C1)C2=C3N(N=C2)C(O)=CC(C4=CC=C(COC(C)C)C=C4)=N3]
mGs recruitment / engagement of hGPR65 [1]: showed engagement
activity after HCl versus water, hGPR65 ([1]; HCl or H2O at cycle 10): showed activity when preceded by the addition of HCl but not water
mode of action from pH-dependent cAMP production ([2]; 0 to 50 μM, pH range of 6.6 to 7.6): PAMs
activity for hGPR65 among prioritized molecules ([2]; 1.56 μM, pH 7.2): highest activity
Emax ([2]; 1st hGPR column pair, NA = no activity): 80%
Emax ([2]; 2nd hGPR column pair, NA = no activity): 70.4%
EC50 ([2]; hGPR EC50 (uM), NA = no activity): 0.856 µM
EC50 ([2]; hGPR EC50 (uM), pH 7.2, 30 min): 1.41 µM
EC50 ([2]; hGPR EC50, NA = no activity): 1.66 µM
EC50 ([2]; hGPR EC50, pH 7.2, 30 min): 1.5 µM
cAMP activity, hGPR65 ([2]; pH 7.2): at least 40%
G protein recruitment in cells expressing hGPR65 I231L [3]: able to recruit G protein
solubility [4]: 13.6 µM (≈ 5.91 µg/mL)
mGs recruitment / engagement of mGPR65 [5]: showed engagement
activity after HCl versus water, mGPR65 ([5]; HCl or H2O at cycle 10): showed activity when preceded by the addition of HCl but not water
cell viability ([6]; 50 μM, 72 hours): slight decrease in cell viability
cytotoxicity ([6]; 72-hour incubation, 0-50 μM): not cytotoxic
response in cells expressing hGPR4-SmBiT [7]: failing to elicit responses
logD ([8]; pH 7.4, pH7.4, read-out: LogD (pH7.4)): 3.65
logD ([8]; read-out: lipophilicity (logD)): 3.62
activity for mGPR65 among prioritized molecules ([9]; 1.56 μM, pH 7.2): highest activity
cAMP response against mGPR65 among prioritized compounds ([9]; HeLa cells): highest cAMP response
Emax [9, 10]: 56%
Emax ([9]; NA = no activity): 63.5%
EC50 [9, 10]: 0.371 µM
EC50 ([9]; first pair of columns, pH 7.2, 30 min): 0.432 µM
EC50 ([9]; second pair of columns, pH 7.2, 30 min): 0.653 µM
EC50 ([9]; NA = no activity): 0.0578 µM
cAMP activity, mGPR65 ([9]; pH 7.2): at least 40%
